Results from patent US20200085895A1, “PUNICALAGIN COMPOSITIONS AND METHODS FOR THE TREATMENT OF DISORDERS ARISING FROM METHYLGLYOXAL-INDUCED DNA DAMAGE” (Verdure Sciences, priority 2018, published 2020).
“Also recorded” adds a separate entry of the source.

Experiments:
[1] = system: HaCaT cells; assay: Alkaline comet assay, MGO-induced DNA damage; type: cell-based, human; conditions: for protective effect on MGO induced DNA damage (comet assay, tail DNA): 50 μM pre-treatment 2 hours, MGO 400 μM 24 h, FIG. 8
Experimental: HaCaT cells were seeded at about 100 000 cells/ml to yield 80-90% confluence in standard 6-well plates. […] After incubation, the cells were washed with PBS twice and then treated with MGO (400 μM) for 24 h. After that, comet assay was performed as per the protocol provided by [sequence] (4250-050-K). Briefly, cells were collected and combined with molten LMAgarose at a ratio of 1:10, pipetted onto Comet slides, incubate in Lysis Solution at 4° C. overnight, immerse slides in Alkaline Unwinding Solution for 20 minutes, apply electrophoresis in Alkaline Electrophoresis Solution at 21 volts for 30 minutes, fixed in 75% ethanol for 15 minutes, dry in 37° C. for 15 minutes and then stain in diluted SYBR GOLD, images were taken with EVOS Cell Imaging System (Invitrogen, Waltham, Mass., USA) and analyzed via CASP.

[2] = system: HaCaT cells; assay: Reactive oxygen species (ROS) assay, DCFDA; type: cell-based, human; conditions: MGO 400 μM 24 h, FIG. 6
Experimental: HaCaT cells were seeded at about 50 000 cells/ml to yield 50-60% confluence in standard white-walled clear bottom 96-well plates and 6-well plates in DMEM. After 12 h incubation cells were pre-treated with concentrations of PE (0, 6.25, 12.5, 25, 50, 100, 200 μg/mL), PA (0, 3.13, 6.25, 12.5, 25, 50, 100, 200 μM), EA (0, 3.13, 6.25, 12.5, 25, 50, 100, 200 μM), and UA (0, 3.13, 6.25, 12.5, 25, 50, 100, 200 μM) for 2 hours. Then, the medium was replaced with DMEM containing 20 μM DCFDA and MGO (400 μM) for 24 h. After incubation, all the wells were washed with PBS twice. Subsequently, the fluorescence signals from 96-well plates were read at excitation and emission wavelengths of 485 and 525 nm, respectively, using a Spectra Max M2 spectrometer (Molecular Devices, Sunnyvale, Calif., USA). Cells images were taken with EVOS Cell Imaging System (Invitrogen, Waltham, Mass., USA) using 6-well plates cells.

[3] = system: HaCaT cells; assay: Cell viability of HaCaT cells exposed to test substances (CTG 2.0); type: cell-based, human; conditions: 0-200 μM, 24 hours, FIG. 3
Experimental: (§1) HaCaT cells which were derived from human adult keratinocytes were bought from American Type Culture Collection (Manassas, Va., USA). The cells were maintained in DMEM supplemented with 5% FBS at 37° C. under an atmosphere of 5% CO2 and 95% air. The culture medium was replaced every other day.
Cellular viability was assessed using the Cell Titer Glo2.0 (CTG 2.0) one-step assay. Briefly, HaCaT cells were seeded at about 50 000 cells/ml to yield 50-60% confluence in a standard white-walled clear bottom 96-well plate. HaCaT cells were exposed to different concentration of PE (0, 6.25, 12.5, 25, 50, 100, 200 μg/mL), PA (0, 3.13, 6.25, 12.5, 25, 50, 100, 200 μM), EA (0, 3.13, 6.25, 12.5, 25, 50, 100, 200 μM), and UA (0, 3.13, 6.25, 12.5, 25, 50, 100, 200 μM) for 24 hours. Following the pre-determined incubation period of 24 hours, CTG 2.0 was added in a 1:1 ratio with existing media and mixed for 5 minutes on an orbital shaker prior to luminescence measurement (Spectramax M2, Molecular Devices, Sunnyvale, Calif., USA).

[4] = system: HaCaT cells; assay: Hoechst 33342 staining, MGO-induced DNA damage; type: cell-based, human; conditions: 50 μM pre-treatment 2 hours, 400 μM MGO 24 hours; FIG. 7
Experimental: HaCaT cells were seeded at about 50,000 cells/ml to yield 50-60% confluency in a standard 6-well plate. Cells were pre-treated with PE 50 μg/mL, PA 50 μM, EA 50 μM, and UA 50 μM, respectively for 2 hours. Then cells were washed with PBS once and treated with 400 μM of MGO for 24 hours. After that cells were washed with PBS twice and then incubated with 250 μl Hoechst 33342 (1:300 dilute with PBS) at room temperature for 15 minutes. Then cells were fixed with 75% ethanol for 15 minutes, followed by imaging with EVOS Cell Imaging System (Invitrogen, Waltham, Mass., USA).

[5] = system: HaCaT cells; assay: Transwell assay (cell migration ability); type: cell-based, human; conditions: 50 μM pre-treatment 2 hours, 400 μM MGO 24 h; FIG. 9B
Experimental: Cell migration ability was measured by transwell assay. HaCaT cells in 6-well plates were cultured up to about 80-90% confluence. Then cells were pretreated with PE 50 μg/mL, PA 50 μM, EA 50 μM, and UA 50 μM, respectively for 2 hours, then washed with PBS twice. After that, cells were exposed to 400 μM of MGO for 24 h. Then, cells were digested with trypsin and centrifuged at 300 g for 5 min. Then, 2.5×10^5 cell were suspended in 1 ml serum free DMED. 100 μl of serum free DMEM were added into the upper chamber and incubated for 5 minutes, then 600 μl DMEM containing 5% FBS were added to the 24 well plate (lower chamber). After that 300 μl of cell suspension were added into the upper chamber. After 12 h incubation, cells in upper chamber were washed with PBS and fixed with 75% ethanol for 15 minutes. Then cells in upper chamber were stained with Crystal violet for 10 minutes and washed for 5 times. Cells inside the upper chamber were removed by swab. Then, pictures were taken with EVOS Cell Imaging System (Invitrogen, Waltham, Mass., USA). After that stained cells were incubated in 75% ethanol for 15 minutes for decoloration. Then, optical density of the decoloration solution in 570 nm was calculated via Spectra Max M2 spectrometer (Molecular Devices, Sunnyvale, Calif., USA).

[6] = system: HaCaT cells; assay: Protective effect on MGO induced cell damage model (CTG 2.0); type: cell-based, human; conditions: 12.5, 25, and 50 μM pre-treatment 2 hours, then 400 μM MGO 24 hours; FIG. 5
Experimental: as §1
Briefly, HaCaT cells were seeded at about 50000 cells/ml to yield 50-60% confluence in standard white-walled clear bottom 96-well plates and 6-well plates. After 12 h incubation cells were pre-treated with different concentrations of PE (0, 6.25, 12.5, 25, 50, 100, 200 μg/mL), PA (0, 3.13, 6.25, 12.5, 25, 50, 100, 200 μM), EA (0, 3.13, 6.25, 12.5, 25, 50, 100, 200 μM), and UA (0, 3.13, 6.25, 12.5, 25, 50, 100, 200 μM) for 2 hours. Then cells were washed with PBS twice and treated with 400 μM MGO for 24 hours. Cellular viability was detected using cells in 96-well plate via CTG 2.0, and cell images were taken with EVOS Cell Imaging System (Invitrogen, Waltham, Mass., USA) using cells in 6-well plates after crystal violet stain.

[7] = system: 9mer ss-DNA; assay: Glycation assay and LC-MS analysis of MGO-induced DNA damage; type: biochemical; conditions: FIG. 1
Source text: DNA Oligonucleotide Synthesis. Nine-mer single stranded DNA oligonucleotide (9mer ss-DNA) with the sequence 5′-TTTTGTTTT-3′ containing a single guanine base was synthesized by using solid-phase phosphoramidite chemistry as previously described^2 on MerMade-4 DNA synthesizer. The oligonucleotide was purified by using Thermo Scientific DNAPac PA100 Oligonucleotide anion-exchange column (4×250 mm, 13 μm) with two mobile phases. Solvent A was water, and solvent B was 1.5M ammonium acetate in water. The oligonucleotide was characterized by HPLC electrospray ionization (ESI) triple quadrupole-TOF mass spectrometry (MS). The concentration of oligonucleotide was determined by measuring UV absorbance at 260 nm on a NanoDrop spectrophotometer.
Glycation Assay and LC-MS Analysis. […] LC-MS analysis was carried out on AB Sciex triple quadrupole-TOF 4600 mass spectrometer. […]
Statistical Analysis. […] The data between two groups was assessed under the two-tailed Student's t test. p-value<0.05 was considered as statistically significant. […]

[8] = system: HaCaT cells; assay: Wound healing model (in vitro scratch healing assay); type: cell-based, human; conditions: 50 μM pre-treatment 2 hours, 400 μM MGO 48 h; FIG. 9D, 9E
Experimental: as §1
Wound healing model was constructed with an in vitro scratch healing assay performed as described previously with certain modifications.^4 HaCaT cells in 6-well plates were cultured up to about 80-90% confluence. Then cells were pretreated with PE 50 μg/mL, PA 50 μM, EA 50 μM, and UA 50 μM, respectively for 2 hours. After the treatments, a narrow wound-like gap in the cell monolayer was created with a […] pipette tip in each well. The shedding cells were washed off with PBS and then the images were captured with EVOS Cell Imaging System (Invitrogen, Waltham, Mass., USA). The cells were further exposed to 400 μM MGO for 48 h and the cell images were captured with EVOS Cell Imaging System (Invitrogen, Waltham, Mass., USA). Gap area was analyzed in image J, a software quantifying visualization image data, and the wound healing rate was calculated as follows=[…]/Gap Area(0 h)×100%.

[9] = system: HaCaT cells; assay: MGO induced cell damage model (CTG 2.0, crystal violet staining); type: cell-based, human; conditions: 24 hours
Experimental: as §1
Briefly, HaCaT cells were seeded at about 50000 cells/ml to yield 50-60% confluence in standard white-walled clear bottom 96-well plates and 6-well plates. After 12 h incubation cells were treated with different concentrations of MGO ([…], 200 μM, 300 μM, 400 μM, 500 μM and 600 μM) for 24 hours respectively and use non-treated group as control. Cellular viability was detected using cells in 96-well plates via CTG 2.0. […] At higher concentrations than 400 μM the damaged caused by MGO to the cells was extreme. Morphological analysis was conducted to evaluate cell damage with crystal violet staining method in 6-well plates as per the below mentioned procedure.
Briefly crystal violet staining were carried with protocol provided by sigma. The staining solution was prepared by dissolve 5 g of crystal violet powder into 100 ml 20% ethanol to make. HaCaT cells in 6-well plates were fixed with 75% ethanol 15 minutes in room temperature. Then cells were incubated with staining solution for 10 minutes. After that cells were washed with PBS for 5 times. Subsequently, pictures were taken under EVOS Cell Imaging System (Invitrogen, Waltham, Mass., USA).
Excessive accumulation of MGO is harmful for skin cells, so the effects of MGO on cell viability at various concentrations on HaCaT cells were evaluated first.

Compound | protective effect on MGO induced DNA damage (comet assay, tail DNA) [1] | production of MGO induced ROS in HaCaT cells, compared to non-treated group ([2]; 50 μM pre-treatment 2 hours) | cytotoxicity to HaCaT cells [3] | DNA damage level caused by MGO (Hoechst staining) [4] | cell migration ability (transwell assay) [5] | cell viability of HaCaT cells exposed to MGO, compared to non-treated group [6] | production of MGO induced ROS in HaCaT cells, compared to non-treated group ([2]; 12.5, 25, and 50 μM pre-treatment 2 hours) | protective effect against methylglyoxal (MGO)-induced DNA damage ([7]; 200 μM 9mer ss-DNA, 200 μM MGO, pH 7.4, 37° C., 7 days) | activity in reducing DNA damage compared with aminoguanidine (AG) positive control ([7]; equivalent concentration (50 μM)) | wound healing process in the presence of MGO [8] | production of MGO induced ROS in HaCaT cells, compared to non-treated group ([2]; 25 and 50 μM pre-treatment 2 hours) | effect of MGO on HaCaT cell viability ([9]; MGO 100-300 μM) | effect of MGO on HaCaT cell viability ([9]; MGO at 400 μM or higher) | effect of MGO on HaCaT cell viability ([9]; MGO higher than 400 μM) | percentage of fracture DNA compared to control group (comet assay) ([1]; MGO 400 μM alone, 24 h)
O=c1oc2c(O)c(O)cc3c(=O)oc4c(O)c(O)cc1c4c23 [EA, ellagic acid] | no protective effects | significantly reduced the production of MGO induced ROS | not cytotoxic | can reduce the DNA damage level | promotive effects | – | – | – | – | – | – | – | – | – | –
O=C1O[C@H]2[C@@H]3OC(=O)c4cc(O)c(O)c(O)c4-c4c(O)c(O)c5oc(=O)c6c(c(O)c(O)c7oc(=O)c4c5c76)-c4c(cc(O)c(O)c4O)C(=O)OC[C@H]3OC(O)[C@@H]2OC(=O)c2cc(O)c(O)c(O)c2-c2c1cc(O)c(O)c2O (mixture of isomers) [PA, punicalagin] | protective effect | – | – | can reduce the DNA damage level | promotive effects | significantly increased cell viability | significantly reduced the production of MGO induced ROS | protective effect | considerably more active | can promote the wound healing process | – | – | – | – | –
O=c1oc2cc(O)ccc2c2ccc(O)cc12 [UA, urolithin A] | no protective effects | – | not cytotoxic | can reduce the DNA damage level | promotive effects | – | – | – | – | – | significantly reduced the production of MGO induced ROS | – | – | – | –
CC(=O)C=O [MGO, methylglyoxal] | – | – | – | – | – | – | – | – | – | – | – | did not affect the cell viability; also recorded: non-toxic | significant cytotoxicity | extreme; also recorded: extremely cytotoxic | could increase the percentage of fracture DNA
